Assay results reported in ChEMBL document CHEMBL1201862, “PubChem BioAssay data set” (2004).
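Five compound concentrations were applied to cells in 96-well plates for 48 hours; endpoints were derived by simple linear interpolation of the resulting dose-response curve. GI50 is the concentration that inhibits growth by half.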 Active and inactive are the calls of the source. Cut-off read from the data, not from the text of the source: active = GI50 up to about 1.1 µM and inactive = higher.

Legend:
Assay in all cases: NCI-60 cell line screen, 48 h
PC-3 = system: PC-3
NCI-H23 = system: NCI-H23
RXF 393 = system: RXF 393
SF-539 = system: SF-539
HCC 2998 = system: HCC 2998
SR = system: SR
SF-268 = system: SF-268
SW-620 = system: SW-620
UO-31 = system: UO-31
SNB-75 = system: SNB-75
M14 = system: M14
IGROV-1 = system: IGROV-1
BT-549 = system: BT-549
SF-295 = system: SF-295
T47D = system: T47D
Malme-3M = system: Malme-3M
UACC-257 = system: UACC-257
CCRF-CEM = system: CCRF-CEM
Hs-578T = system: Hs-578T
LOX IMVI = system: LOX IMVI

Measured: GI50

N#Cc1c(-c2ccc(Cl)cc2)cc(-c2ccc(Nc3ccnc4cc(Cl)ccc34)cc2)nc1N
inactive: PC-3 > 100 µM | NCI-H23 > 100 µM | RXF 393 > 100 µM | SF-539 87.7 µM | HCC 2998 > 100 µM | SR 5.45 µM | SF-268 > 100 µM | SW-620 > 100 µM | UO-31 > 100 µM | SNB-75 > 100 µM | M14 > 100 µM | IGROV-1 > 100 µM | BT-549 > 100 µM | SF-295 > 100 µM | T47D > 100 µM | Malme-3M > 100 µM

CC(C)(C)OC(=O)C1/C(=C/CO)CN1C(=O)OC(C)(C)C (stereo not given)
inactive: PC-3 > 100 µM | NCI-H23 > 100 µM | SF-539 > 100 µM | UACC-257 > 100 µM | HCC 2998 > 100 µM | SR 90.8 µM | SF-268 > 100 µM | SW-620 > 100 µM | CCRF-CEM 76.2 µM | UO-31 > 100 µM | M14 > 100 µM | IGROV-1 > 100 µM | BT-549 > 100 µM | Hs-578T > 100 µM | SF-295 > 100 µM | LOX IMVI > 100 µM | Malme-3M > 100 µM

NC(=O)N/N=C\c1ccccc1OCc1cccc(COc2ccccc2/C=N\NC(N)=O)n1
inactive: PC-3 86.9 µM | NCI-H23 30.1 µM | RXF 393 12.9 µM | SF-539 19.3 µM | UACC-257 > 100 µM | HCC 2998 21.3 µM | SF-268 21 µM | SW-620 > 100 µM | CCRF-CEM > 100 µM | UO-31 29.9 µM | M14 49.2 µM | IGROV-1 37.4 µM | BT-549 26.9 µM | Hs-578T 13.2 µM | SF-295 17.1 µM | LOX IMVI 46.1 µM | Malme-3M 72.9 µM

O=C(COc1cc(=O)oc2ccccc12)c1ccccc1
inactive: NCI-H23 25.2 µM | RXF 393 > 10 µM | SF-539 21.5 µM | UACC-257 > 100 µM | HCC 2998 > 100 µM | SR > 100 µM | SF-268 48.5 µM | SW-620 44.8 µM | CCRF-CEM 71.6 µM | UO-31 > 10 µM | SNB-75 26.4 µM | M14 42 µM | IGROV-1 26.9 µM | BT-549 24.6 µM | Hs-578T 24.9 µM | SF-295 29.1 µM | T47D 25.4 µM | LOX IMVI 41.1 µM | Malme-3M > 100 µM

O=C(NC1CCC(=O)N1C(=O)OCc1ccccc1)OCc1ccccc1 (stereo not given)
inactive: PC-3 > 100 µM | NCI-H23 > 100 µM | RXF 393 > 100 µM | SF-539 > 100 µM | UACC-257 > 100 µM | HCC 2998 > 100 µM | SR > 100 µM | SF-268 > 100 µM | SW-620 > 100 µM | UO-31 > 100 µM | SNB-75 77.6 µM | M14 > 100 µM | IGROV-1 > 100 µM | BT-549 > 100 µM | Hs-578T > 100 µM | SF-295 > 100 µM | Malme-3M > 100 µM

O=C1/C(=C/c2ccc3c(c2)CCC3)Cc2cc3c(cc21)CCC3
inactive: PC-3 > 100 µM | NCI-H23 > 100 µM | RXF 393 49.3 µM | SF-539 > 100 µM | UACC-257 > 100 µM | HCC 2998 > 100 µM | SR > 100 µM | SF-268 > 100 µM | SW-620 > 100 µM | CCRF-CEM > 100 µM | UO-31 > 100 µM | SNB-75 26.2 µM | M14 > 100 µM | IGROV-1 > 100 µM | BT-549 > 100 µM | SF-295 > 100 µM | T47D 3.53 µM | LOX IMVI > 100 µM | Malme-3M > 100 µM
